Results reported in BindingDB's records for doi:10.1016/0024-3205(91)90562-p (Technion-Israel Institute of Technology, 1991).
“And” between values parts separate entries of the source, which are not always exact repeats. Identical values can stand only once.

Experiments:
[1] = molecular target: T1, Gamma-aminobutyric acid receptor subunit alpha-1 (Homo sapiens, UniProt P14867)
T1 sequence (P14867 whole entry): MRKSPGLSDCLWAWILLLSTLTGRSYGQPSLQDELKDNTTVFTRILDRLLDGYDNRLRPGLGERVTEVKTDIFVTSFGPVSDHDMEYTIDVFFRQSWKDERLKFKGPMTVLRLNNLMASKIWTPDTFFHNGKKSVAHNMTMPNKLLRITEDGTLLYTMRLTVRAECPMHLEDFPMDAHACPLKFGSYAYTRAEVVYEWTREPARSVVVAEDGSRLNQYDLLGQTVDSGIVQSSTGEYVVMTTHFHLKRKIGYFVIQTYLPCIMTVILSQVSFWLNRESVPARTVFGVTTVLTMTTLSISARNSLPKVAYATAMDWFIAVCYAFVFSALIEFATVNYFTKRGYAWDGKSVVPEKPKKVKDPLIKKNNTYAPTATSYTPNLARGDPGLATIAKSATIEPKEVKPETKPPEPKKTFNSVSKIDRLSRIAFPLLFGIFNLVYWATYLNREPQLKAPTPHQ

[2] = molecular target: Gamma-aminobutyric acid receptor subunit alpha-1 (Rattus norvegicus, UniProt P62813)
Chain of Gamma-aminobutyric acid receptor subunit alpha-1 (Rattus norvegicus, UniProt P62813) (P62813 whole entry): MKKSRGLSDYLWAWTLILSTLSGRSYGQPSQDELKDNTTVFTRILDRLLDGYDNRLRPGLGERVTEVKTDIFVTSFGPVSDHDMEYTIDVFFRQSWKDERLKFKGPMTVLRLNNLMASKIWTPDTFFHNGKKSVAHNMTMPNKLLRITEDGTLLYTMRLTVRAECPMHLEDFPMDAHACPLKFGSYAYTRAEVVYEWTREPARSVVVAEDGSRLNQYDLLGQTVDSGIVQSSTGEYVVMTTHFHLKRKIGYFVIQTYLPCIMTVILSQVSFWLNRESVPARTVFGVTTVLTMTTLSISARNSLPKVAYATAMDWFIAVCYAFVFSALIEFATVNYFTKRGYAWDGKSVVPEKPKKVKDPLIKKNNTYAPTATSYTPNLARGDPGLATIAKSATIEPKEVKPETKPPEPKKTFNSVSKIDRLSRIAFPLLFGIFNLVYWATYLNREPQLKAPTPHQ

Row | SMILES | Ki [1] | Ki [2]
1 | CN1C(=O)CN=C(c2ccc(Cl)cc2)c2cc(Cl)ccc21 [Ro5-4864] | 750 nM | 
2 | O=C1CN=C(c2ccccc2Cl)c2cc([N+](=O)[O-])ccc2N1 [5-(2-chlorophenyl)-7-nitro-1,3-dihydro-2H-1,4-benzodiazepin-2-one] | > 10000 nM | > 10000 nM
3 | CC[C@@H](C)N(C)C(=O)c1cc2ccccc2c(-c2ccccc2Cl)n1 [PK 11195] | 8 nM and 5 nM | 18 nM and 3 nM and 4 nM
